Laboratory results: the NIST ThermoML archive (doi:10.1021/je900525f)
Numbers after ± are expanded uncertainties.

What was measured:
[1] = 101 kPa, Liquid; for viscosity: Capillary tube (Ostwald / Ubbelohde) method; for speed of sound: Pulse-echo method
[2] = xn = mol fraction of the nth substance listed; settings: 101 kPa, Liquid; for viscosity: Capillary tube (Ostwald / Ubbelohde) method; for speed of sound: Pulse-echo method

N#CCc1ccccc1 [benzeneacetonitrile]
[1]
Settings | mass density [kg/m3] | speed of sound [m/s] | viscosity [mPa·s]
303.15 K | 1008.8 ± 0.7 | 1519.2 ± 9.2 | 1.761 ± 0.016
308.15 K | 1004.1 ± 0.7 | 1512.9 ± 9.2 | 1.602 ± 0.015
313.15 K | 999.5 ± 0.8 | 1503.4 ± 9.1 | 1.489 ± 0.015

N#CCc1ccccc1 [benzeneacetonitrile] + CCOC(=O)CC#N
[2], x1 = 1
Settings | mass density [kg/m3] | speed of sound [m/s] | viscosity [mPa·s]
303.15 K | 1008.8 ± 0.7 | 1519.2 ± 9.2 | 1.761 ± 0.016
308.15 K | 1004.1 ± 0.7 | 1512.9 ± 9.2 | 1.602 ± 0.015
313.15 K | 999.5 ± 0.8 | 1503.4 ± 9.1 | 1.489 ± 0.015

N#CCc1ccccc1 [benzeneacetonitrile] + CCOC(=O)CCl
[2], x1 = 1
Settings | mass density [kg/m3] | speed of sound [m/s] | viscosity [mPa·s]
303.15 K | 1008.8 ± 0.7 | 1519.2 ± 9.2 | 1.761 ± 0.016
308.15 K | 1004.1 ± 0.7 | 1512.9 ± 9.2 | 1.602 ± 0.015
313.15 K | 999.5 ± 0.8 | 1503.4 ± 9.1 | 1.489 ± 0.015

CCOC(C)=O [ethyl acetate]
[1]
Settings | mass density [kg/m3] | speed of sound [m/s] | viscosity [mPa·s]
303.15 K | 888.9 ± 0.5 | 1118.5 ± 6.8 | 0.379 ± 0.01
308.15 K | 882.6 ± 0.5 | 1097.8 ± 6.6 | 0.361 ± 0.01
313.15 K | 875.9 ± 0.5 | 1081.2 ± 6.5 | 0.344 ± 0.01

CCOC(C)=O [ethyl acetate] + N#CCc1ccccc1
[2], x2 = 0
Settings | mass density [kg/m3] | speed of sound [m/s] | viscosity [mPa·s]
303.15 K | 888.9 ± 0.5 | 1118.5 ± 6.8 | 0.379 ± 0.01
308.15 K | 882.6 ± 0.5 | 1097.8 ± 6.6 | 0.361 ± 0.01
313.15 K | 875.9 ± 0.5 | 1081.2 ± 6.5 | 0.344 ± 0.01

CCOC(=O)CCl [ethyl chloroethanoate]
[1]
Settings | mass density [kg/m3] | speed of sound [m/s] | viscosity [mPa·s]
303.15 K | 1139.3 ± 0.9 | 1229.4 ± 7.5 | 0.9692 ± 0.012
308.15 K | 1132.5 ± 0.9 | 1212.4 ± 7.4 | 0.8979 ± 0.012
313.15 K | 1125.9 ± 0.9 | 1197.6 ± 7.3 | 0.8341 ± 0.012

CCOC(=O)CC#N [ethyl cyanoacetate]
[1]
Settings | mass density [kg/m3] | speed of sound [m/s] | viscosity [mPa·s]
303.15 K | 1051.4 ± 1.4 | 1396.9 ± 8.6 | 2.186 ± 0.027
308.15 K | 1046.5 ± 1.4 | 1384.8 ± 8.6 | 1.962 ± 0.024
313.15 K | 1040.8 ± 1.5 | 1367.7 ± 8.5 | 1.77 ± 0.022
